According to PubChem BioAssay (NCI):
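All cell lines were grown in 96-well plates and treated with compound for 48 hours. TGI denotes the concentration required for complete inhibition of growth.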 Where a SMILES comes first, the peptide text is derived from it. The star is where a group is joined. Boc = CC(C)(C)OC(=O)*; OtBu = CC(C)(C)O*

How the values were obtained:
Experiment in all cases: NCI-60 cell line screen, 48 h
[1] = tested on: HS 578T breast
[2] = tested on: HCT-116 colon
[3] = tested on: SK-MEL-2 melanoma
[4] = tested on: OVCAR-4 ovarian
[5] = tested on: SR leukemia
[6] = tested on: EKVX NSCLC
[7] = tested on: HT29 colon
[8] = tested on: MDA-N
[9] = tested on: NCI-H522 lung
[10] = tested on: A498 renal
[11] = tested on: ACHN renal
[12] = tested on: HL-60(TB) leukemia
[13] = tested on: HOP-62 NSCLC
[14] = tested on: NCI-H226 lung
[15] = tested on: KM12 colon
[16] = tested on: T-47D breast
[17] = tested on: MOLT-4 leukemia
[18] = tested on: HCT-15 colon
[19] = tested on: IGROV1 ovarian
[20] = tested on: HOP-92 NSCLC

`O=C(c1ccccc1)N1N=C(C(F)(F)F)CC1(O)C(F)(F)F` (configuration not stated) gave a TGI [1] greater than 100 µM, a TGI [2] greater than 100 µM and a TGI [3] greater than 100 µM. The TGI [4] was greater than 100 µM, the TGI [5] was greater than 100 µM and the TGI [6] was greater than 100 µM. For the same compound, the TGI [7] was greater than 100 µM, the TGI [8] was greater than 100 µM and the TGI [9] was greater than 100 µM. The TGI [10] was greater than 100 µM, the TGI [11] was greater than 100 µM and the TGI [12] was greater than 100 µM. For the same compound, the TGI [13] was greater than 100 µM, the TGI [14] was greater than 100 µM and the TGI [15] was greater than 100 µM. The TGI [16] was greater than 100 µM, the TGI [17] was greater than 100 µM and the TGI [18] was greater than 100 µM.
Work on `CCOC(=O)c1c2ccccc2n2c(=O)n(-c3ccccc3)nnc12` yielded a TGI [1] greater than 100 µM, a TGI [2] greater than 100 µM and a TGI [3] greater than 100 µM. The TGI [4] was greater than 100 µM, the TGI [5] was greater than 25.1 µM and the TGI [6] was greater than 100 µM. The TGI [19] was greater than 100 µM, the TGI [20] was greater than 100 µM and the TGI [8] was greater than 100 µM. It also gave a TGI [10] greater than 100 µM, a TGI [11] greater than 100 µM and a TGI [12] greater than 100 µM. It also gave a TGI [13] greater than 100 µM, a TGI [14] greater than 100 µM and a TGI [15] greater than 100 µM. It also gave a TGI [16] of 71.5 µM and a TGI [18] greater than 100 µM.
For `CC(C)(C)OC(=O)CC(NC(=O)OC(C)(C)C)C(=O)NC(Cc1ccccc1)C(N)=O` (configuration not stated) (Boc-Asp(OtBu)-Phe-NH2; configuration not given here), the TGI [1] was greater than 100 µM, the TGI [2] was greater than 100 µM and the TGI [3] was greater than 100 µM. For the same compound, the TGI [4] was greater than 100 µM, the TGI [6] was greater than 100 µM and the TGI [19] was greater than 100 µM. It also gave a TGI [7] greater than 100 µM, a TGI [20] greater than 100 µM and a TGI [8] greater than 100 µM. It also gave a TGI [9] greater than 100 µM, a TGI [10] greater than 100 µM and a TGI [11] greater than 100 µM. The TGI [13] was greater than 100 µM, the TGI [14] was greater than 100 µM and the TGI [15] was greater than 100 µM. It also gave a TGI [16] greater than 100 µM and a TGI [18] greater than 100 µM.
`COCc1nc(C#N)c(N)o1` gave a TGI [1] greater than 10 µM, a TGI [2] greater than 10 µM and a TGI [4] greater than 10 µM. For the same compound, the TGI [5] was greater than 10 µM, the TGI [6] was greater than 10 µM and the TGI [19] was greater than 10 µM. For the same compound, the TGI [7] was greater than 10 µM, the TGI [20] was greater than 10 µM and the TGI [8] was greater than 10 µM. For the same compound, the TGI [9] was greater than 10 µM, the TGI [11] was greater than 10 µM and the TGI [12] was greater than 10 µM. The TGI [13] was greater than 10 µM, the TGI [14] was greater than 10 µM and the TGI [15] was greater than 10 µM. The TGI [16] was greater than 10 µM, the TGI [17] was greater than 10 µM and the TGI [18] was greater than 10 µM.
Work on `O=c1[nH]c2ccccc2c(=O)c2cc3ccccc3cc12` yielded a TGI [1] of 70.9 µM, a TGI [2] of 20.3 µM and a TGI [3] greater than 100 µM. It also gave a TGI [4] greater than 100 µM, a TGI [6] greater than 100 µM and a TGI [19] greater than 100 µM. It also gave a TGI [7] greater than 100 µM, a TGI [20] of 19.8 µM and a TGI [8] greater than 100 µM. It also gave a TGI [9] of 25.8 µM, a TGI [10] of 48.4 µM and a TGI [11] greater than 100 µM. The TGI [12] was greater than 100 µM, the TGI [13] was 25.9 µM and the TGI [14] was 45.8 µM. For the same compound, the TGI [15] was greater than 100 µM, the TGI [16] was greater than 100 µM and the TGI [17] was greater than 100 µM. The TGI [18] was greater than 100 µM.
`NCCCc1nonc1C(=O)O` was tested, and the TGI [1] was greater than 100 µM, the TGI [2] was greater than 100 µM and the TGI [3] was greater than 100 µM. For the same compound, the TGI [4] was greater than 100 µM, the TGI [5] was greater than 100 µM and the TGI [6] was greater than 100 µM. It also gave a TGI [19] greater than 100 µM, a TGI [7] greater than 100 µM and a TGI [20] greater than 100 µM. For the same compound, the TGI [8] was greater than 100 µM, the TGI [11] was greater than 100 µM and the TGI [12] was greater than 100 µM. The TGI [13] was greater than 100 µM, the TGI [14] was greater than 100 µM and the TGI [15] was greater than 100 µM. For the same compound, the TGI [16] was greater than 100 µM, the TGI [17] was greater than 100 µM and the TGI [18] was greater than 100 µM.
`CN(C)CCCCN1c2ccccc2Sc2ccc(N=[N+]=[N-])cc21` was tested, and the TGI [1] was 18.4 µM, the TGI [2] was 16.3 µM and the TGI [3] was 9.66 µM. For the same compound, the TGI [4] was 19.3 µM, the TGI [6] was 26.3 µM and the TGI [19] was 11.7 µM. For the same compound, the TGI [7] was 5.22 µM, the TGI [20] was 13.4 µM and the TGI [8] was 3.59 µM. It also gave a TGI [9] of 14.1 µM, a TGI [10] of 21.5 µM and a TGI [11] of 12.3 µM. It also gave a TGI [12] of 4.3 µM, a TGI [13] of 25.1 µM and a TGI [14] of 17.7 µM. It also gave a TGI [15] of 8.76 µM, a TGI [16] of 13.5 µM and a TGI [17] of 5.85 µM. It also gave a TGI [18] of 12.8 µM.
For `CC(=O)C1=C(C)N2C(=NC3=C(CCc4ccccc43)C2c2ccc(Cl)cc2)S1` (configuration not stated), the TGI [1] was greater than 100 µM, the TGI [2] was greater than 100 µM and the TGI [3] was greater than 100 µM. It also gave a TGI [4] greater than 100 µM, a TGI [6] greater than 100 µM and a TGI [19] greater than 100 µM. The TGI [7] was greater than 100 µM, the TGI [20] was greater than 100 µM and the TGI [8] was greater than 100 µM. It also gave a TGI [9] of 82.7 µM, a TGI [10] of 51 µM and a TGI [11] greater than 100 µM. The TGI [12] was 10.9 µM, the TGI [13] was greater than 100 µM and the TGI [14] was greater than 100 µM. It also gave a TGI [15] greater than 100 µM, a TGI [16] greater than 100 µM and a TGI [17] of 55.3 µM. It also gave a TGI [18] greater than 100 µM.
With `CC(=O)OCCn1c(Cc2ccc(Cl)cc2)nn(C(C)=O)c1=O` the TGI [1] was greater than 100 µM, the TGI [2] was greater than 100 µM and the TGI [3] was greater than 100 µM. It also gave a TGI [4] greater than 100 µM, a TGI [6] greater than 100 µM and a TGI [19] greater than 100 µM. The TGI [7] was greater than 100 µM, the TGI [20] was greater than 100 µM and the TGI [8] was greater than 100 µM. The TGI [9] was greater than 100 µM, the TGI [10] was greater than 100 µM and the TGI [11] was greater than 100 µM. For the same compound, the TGI [12] was greater than 100 µM, the TGI [14] was greater than 100 µM and the TGI [15] was greater than 100 µM. It also gave a TGI [16] greater than 100 µM, a TGI [17] greater than 100 µM and a TGI [18] greater than 100 µM.
`COC(=O)c1c(C(=O)OC)c2ccccn2c1-c1cc(C)cc2c1C(=O)C=CC2=O` showed a TGI [1] of 24.2 µM, a TGI [2] of 15.7 µM and a TGI [3] of 17.2 µM. The TGI [4] was 18.8 µM, the TGI [5] was 8.53 µM and the TGI [6] was 21.7 µM. For the same compound, the TGI [19] was 17.3 µM, the TGI [7] was 16.6 µM and the TGI [8] was 15.3 µM. The TGI [10] was 17.5 µM, the TGI [11] was 17.2 µM and the TGI [12] was 5.04 µM. The TGI [13] was 21.7 µM, the TGI [14] was 19.7 µM and the TGI [16] was 7.83 µM. It also gave a TGI [17] of 3.76 µM and a TGI [18] of 15.6 µM.
`COc1ccc2c(c1)SC1=Nc3sc4cc(OC)ccc4[n+]3CN12` was tested, and the TGI [1] was greater than 100 µM, the TGI [2] was greater than 100 µM and the TGI [3] was 65.3 µM. For the same compound, the TGI [5] was 24.4 µM, the TGI [6] was greater than 100 µM and the TGI [19] was greater than 100 µM. For the same compound, the TGI [7] was 56.3 µM, the TGI [20] was 14.6 µM and the TGI [8] was greater than 100 µM. For the same compound, the TGI [9] was 8.5 µM, the TGI [11] was greater than 100 µM and the TGI [12] was 63.5 µM. For the same compound, the TGI [13] was greater than 100 µM, the TGI [15] was 71.9 µM and the TGI [16] was 38.3 µM. For the same compound, the TGI [17] was 25.1 µM and the TGI [18] was greater than 100 µM.
For `CN1CN(c2ccccc2)C2(CCN(CCCN(C)c3ccc(F)cc3)CC2)C1=O`, the TGI [1] was 42.8 µM, the TGI [2] was 25.4 µM and the TGI [3] was 33.5 µM. The TGI [19] was 34.6 µM, the TGI [7] was 22.6 µM and the TGI [8] was 30.7 µM. For the same compound, the TGI [9] was 27.4 µM, the TGI [10] was 72.6 µM and the TGI [11] was 53.2 µM. For the same compound, the TGI [12] was 26.2 µM, the TGI [13] was 32.1 µM and the TGI [14] was 45.1 µM. It also gave a TGI [15] of 31.3 µM, a TGI [16] of 41.7 µM and a TGI [17] of 54.7 µM. It also gave a TGI [18] of 50.1 µM.
For `O=c1oc2cc(O)ccc2c(O)c1C(c1ccc(/C=C/c2ccccc2)cc1)c1c(O)c2ccc(O)cc2oc1=O`, the TGI [1] was greater than 100 µM, the TGI [2] was greater than 100 µM and the TGI [3] was greater than 100 µM. For the same compound, the TGI [4] was greater than 100 µM, the TGI [6] was greater than 100 µM and the TGI [19] was greater than 100 µM. For the same compound, the TGI [7] was greater than 100 µM, the TGI [20] was greater than 100 µM and the TGI [8] was greater than 100 µM. The TGI [9] was greater than 100 µM, the TGI [10] was greater than 100 µM and the TGI [11] was greater than 100 µM. The TGI [12] was 69.6 µM, the TGI [13] was greater than 100 µM and the TGI [14] was greater than 100 µM. The TGI [15] was greater than 100 µM, the TGI [16] was greater than 100 µM and the TGI [17] was 64.1 µM. For the same compound, the TGI [18] was greater than 100 µM.
